Data from the supplement of paper PMC11451515.

Assays:
Settings in all cases: 48 h
[1] = system: SEM cells; assay: AUC of viability dose-response curve (% viability x log10 dose units); higher = less sensitive
In short: (§1)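 Leukemia cells adapted to each medium were seeded in 1536-well plates (500 or 1000 cells/well). They were dosed with library compounds in DMSO at 11 threefold doses, 47 μM to 0.79 nM, for 48 h at 37°C. CellTiter-Glo One luminescence was normalised per plate to DMSO and cell-free wells. Area under the curve was integrated by trapezoidal rule over log10 doses on a four-parameter log-logistic fit; curves exceeding full viability were scaled and curves failing quality control removed.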

[2] = system: P12-Ichikawa; assay: as above
In short: as §1

[3] = system: NOMO1; assay: as above
In short: as §1

[4] = system: SEM cells; assay: cell viability relative to DMSO control; higher = less cytotoxic
In short: (§2)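 Cells were incubated for 48 h at 37°C before CellTiter-Glo One luminescence was read. The cells were NOMO1 or SEM (500 cells/well) or P12-Ichikawa (1000 cells/well) leukemia cells, adapted for at least four passages in each medium and seeded in 1536-well plates (5 μl). Dosing used library compounds in DMSO applied by pin over 11 threefold points, 47 μM to 0.79 nM. Viability is the per-plate percentage of DMSO wells, with cell-free wells as background.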

[5] = system: P12-Ichikawa; assay: as above
In short: as §2

[6] = system: NOMO1; assay: as above
In short: as §2

[7] = RPMI 5 mM glucose + 10% dialyzed FBS
[8] = HPLM + 10% dialyzed FBS, 0.000781 µM
[9] = HPLM + 10% dialyzed FBS, 0.00234 µM
[10] = HPLM + 10% dialyzed FBS, 0.00702 µM
[11] = HPLM + 10% dialyzed FBS, 0.0211 µM
[12] = HPLM + 10% dialyzed FBS, 0.0632 µM
[13] = HPLM + 10% dialyzed FBS, 0.19 µM
[14] = HPLM + 10% dialyzed FBS, 0.569 µM
[15] = HPLM + 10% dialyzed FBS, 1.71 µM
[16] = HPLM + 10% dialyzed FBS, 5.12 µM
[17] = HPLM + 10% dialyzed FBS, 15.4 µM
[18] = HPLM + 10% dialyzed FBS, 46.1 µM
[19] = RPMI 5 mM glucose + 10% FBS, 0.000781 µM
[20] = RPMI 5 mM glucose + 10% FBS, 0.00234 µM
[21] = RPMI 5 mM glucose + 10% FBS, 0.00702 µM
[22] = RPMI 5 mM glucose + 10% FBS, 0.0211 µM
[23] = RPMI 5 mM glucose + 10% FBS, 0.0632 µM
[24] = RPMI 5 mM glucose + 10% FBS, 0.19 µM
[25] = RPMI 5 mM glucose + 10% FBS, 0.569 µM
[26] = RPMI 5 mM glucose + 10% FBS, 1.71 µM
[27] = RPMI 5 mM glucose + 10% FBS, 5.12 µM
[28] = RPMI 5 mM glucose + 10% FBS, 15.4 µM
[29] = RPMI 5 mM glucose + 10% FBS, 46.1 µM
[30] = RPMI 5 mM glucose + 10% dialyzed FBS, 0.000781 µM
[31] = RPMI 5 mM glucose + 10% dialyzed FBS, 0.00234 µM
[32] = RPMI 5 mM glucose + 10% dialyzed FBS, 0.00702 µM
[33] = RPMI 5 mM glucose + 10% dialyzed FBS, 0.0211 µM
[34] = RPMI 5 mM glucose + 10% dialyzed FBS, 0.0632 µM
[35] = RPMI 5 mM glucose + 10% dialyzed FBS, 0.19 µM
[36] = RPMI 5 mM glucose + 10% dialyzed FBS, 0.569 µM
[37] = RPMI 5 mM glucose + 10% dialyzed FBS, 1.71 µM
[38] = RPMI 5 mM glucose + 10% dialyzed FBS, 5.12 µM
[39] = RPMI 5 mM glucose + 10% dialyzed FBS, 15.4 µM
[40] = RPMI 5 mM glucose + 10% dialyzed FBS, 46.1 µM

Q: What does the source list for `CN[C@@H]1[C@H](O)[C@H](NC)[C@H]2O[C@@]3(O)C(=O)C[C@@H](C)O[C@H]3O[C@@H]2[C@H]1O`?
A: AUC of viability dose-response curve ([1]; HPLM + 10% dialyzed FBS): 465; AUC of viability dose-response curve ([1]; RPMI 5 mM glucose + 10% FBS): 445; AUC of viability dose-response curve [1, 7]: 458; AUC of viability dose-response curve ([2]; HPLM + 10% dialyzed FBS): 457; AUC of viability dose-response curve ([2]; RPMI 5 mM glucose + 10% FBS): 450; AUC of viability dose-response curve [2, 7]: 446; AUC of viability dose-response curve ([3]; HPLM + 10% dialyzed FBS): 438; AUC of viability dose-response curve ([3]; RPMI 5 mM glucose + 10% FBS): 424; AUC of viability dose-response curve [3, 7]: 467; cell viability [4, 8]: 119%; cell viability [4, 9]: 125%; cell viability [4, 10]: 122%; cell viability [4, 11]: 123%; cell viability [4, 12]: 121%; cell viability [4, 13]: 120%; cell viability [4, 14]: 118%; cell viability [4, 15]: 122%; cell viability [4, 16]: 113%; cell viability [4, 17]: 115%; cell viability [4, 18]: 109%; cell viability [4, 19]: 120%; cell viability [4, 20]: 110%; cell viability [4, 21]: 126%; cell viability [4, 22]: 117%; cell viability [4, 23]: 115%; cell viability [4, 24]: 113%; cell viability [4, 25]: 123%; cell viability [4, 26]: 110%; cell viability [4, 27]: 104%; cell viability [4, 28]: 104%; cell viability [4, 29]: 104%; cell viability [5, 8]: 118%; cell viability [5, 9]: 117%; cell viability [5, 10]: 124%; cell viability [5, 11]: 115%; cell viability [5, 12]: 118%; cell viability [5, 13]: 116%; cell viability [5, 14]: 114%; cell viability [5, 15]: 111%; cell viability [5, 16]: 114%; cell viability [5, 17]: 101%; cell viability [5, 18]: 98.4%; cell viability [5, 19]: 109%; cell viability [5, 20]: 117%; cell viability [5, 21]: 126%; cell viability [5, 22]: 120%; cell viability [5, 23]: 117%; cell viability [5, 24]: 113%; cell viability [5, 25]: 105%; cell viability [5, 26]: 106%; cell viability [5, 27]: 106%; cell viability [5, 28]: 105%; cell viability [5, 29]: 97.5%; cell viability [5, 30]: 122%; cell viability [5, 31]: 121%; cell viability [5, 32]: 115%; cell viability [5, 33]: 116%; cell viability [5, 34]: 106%; cell viability [5, 35]: 116%; cell viability [5, 36]: 117%; cell viability [5, 37]: 106%; cell viability [5, 38]: 114%; cell viability [5, 39]: 107%; cell viability [5, 40]: 101%; cell viability [6, 8]: 123%; cell viability [6, 9]: 135%; cell viability [6, 10]: 117%; cell viability [6, 11]: 113%; cell viability [6, 12]: 124%; cell viability [6, 13]: 127%; cell viability [6, 14]: 128%; cell viability [6, 15]: 121%; cell viability [6, 16]: 103%; cell viability [6, 17]: 87.4%; cell viability [6, 18]: 42.6%; cell viability [6, 30]: 110%; cell viability [6, 31]: 115%; cell viability [6, 32]: 115%; cell viability [6, 33]: 119%; cell viability [6, 34]: 122%; cell viability [6, 35]: 121%; cell viability [6, 36]: 113%; cell viability [6, 37]: 114%; cell viability [6, 38]: 119%; cell viability [6, 39]: 103%; cell viability [6, 40]: 91.4%
